Assay results taken from US9302999B2, “Substituted triazoles as herbicides” (E. I. DU PONT DE NEMOURS AND COMPANY, priority 2012, dated 2016).

Columns and labels:
rice (Oryza sativa) = experiment: Test B flooded paddy: rice; format: in vivo; details: Flood; 250 g ai/ha; applied to paddy water at 2-leaf stage; visually evaluated after 13 to 15 days
Outline: (§1)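 Plants were grown to the 2-leaf stage and pots flooded to 3 cm above soil. Compounds were applied directly into the paddy water, with depth kept for the test. After 13–15 days in greenhouse, response was rated visually against controls on a 0 (no effect) to 100 (complete control) scale.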

[1] = system: sedge, umbrella (small-flower umbrella sedge Cyperus difformis); experiment: Test B flooded paddy: sedge, umbrella; format: in vivo; details: Flood; 250 g ai/ha; applied to paddy water at 2-leaf stage; visually evaluated after 13 to 15 days
Outline: as §1

[2] = system: winter wheat (Triticum aestivum); experiment: Test C pre-/postemergence: winter wheat; format: in vivo
Outline: (§2)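 Preemergence on seeds in loam/sand, postemergence on 2–18 cm (1–4-leaf) plants in peat-based medium; compounds in non-phytotoxic solvent with surfactant. After 13–15 days in greenhouse, visual rating versus controls, 0 (no effect) to 100 (complete control).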

[3] = system: galium (catchweed bedstraw, Galium aparine); experiment: Test C pre-/postemergence: galium; format: in vivo
Outline: as §2

corn (Zea mays) = experiment: Test C pre-/postemergence: corn; format: in vivo
Outline: as §2

[4] = system: lambsquarters (Chenopodium album); experiment: Test C pre-/postemergence: lambsquarters; format: in vivo
Outline: as §2

[5] = system: morningglory (Ipomoea coccinea); experiment: Test C pre-/postemergence: morningglory; format: in vivo
Outline: as §2

[6] = system: velvetleaf (Abutilon theophrasti); experiment: Test C pre-/postemergence: velvetleaf; format: in vivo
Outline: as §2

Barnyardgrass = experiment: Test C postemergence: barnyardgrass; format: in vivo, Echinochloa crus-galli
Outline: (§3)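 Visual 0–100 injury score vs untreated controls (0 none, 100 complete control), taken 13–15 d after treatment. Postemergence spray on potted plants, 2–18 cm, 1–4 leaves; greenhouse.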

Waterhemp [7] = experiment: Test C postemergence: waterhemp; format: in vivo; details: 62 g ai/ha, scale 0 to 100 (0 no effect, 100 complete control)
Outline: as §3

Oilseed Rape = experiment: Test C preemergence: oilseed rape; format: in vivo; details: 62 g ai/ha, scale of 0 to 100, 0 is no effect, 100 is complete control
Waterhemp [8] = experiment: Test C pre-/postemergence: waterhemp; format: in vivo; details: Postemergence, 31 g ai/ha; scale 0 to 100 (0 no effect, 100 complete control)
[9] = Postemergence, 31 g ai/ha, scale 0 to 100 (0 no effect, 100 complete control)
[10] = Postemergence, 62 g ai/ha, scale 0 to 100 (0 no effect, 100 complete control)
[11] = Postemergence, 125 g ai/ha, scale 0 to 100, 0 no effect, 100 complete control
[12] = Postemergence, 250 g ai/ha, scale 0 to 100 (0 no effect, 100 complete control)
[13] = Preemergence, 31 g ai/ha, scale 0 (no effect) to 100 (complete control)
[14] = Preemergence, 62 g ai/ha, scale of 0 to 100, 0 is no effect, 100 is complete control
[15] = Preemergence, 125 g ai/ha, scale 0 to 100, 0 no effect, 100 complete control
[16] = Preemergence, 250 g ai/ha, scale 0 to 100, 0 no effect, 100 complete control
[17] = Postemergence, 250 g ai/ha, scale 0 to 100
[18] = 31 g ai/ha, scale 0 to 100 (0 no effect, 100 complete control)
[19] = 62 g ai/ha, scale 0 to 100 (0 no effect, 100 complete control)

## CCCc1nn(-c2ccc(F)cc2)nc1Oc1ccnc(C(F)(F)F)c1 [Compound 168]
Rice (Oryza sativa)
  Plant response rating, Rice (0 to 100 scale, 0 is no effect, 100 is complete control): 60
[1]
  Plant response rating, Sedge, Umbrella (0 to 100 scale, 0 is no effect, 100 is complete control): 85
[2]; [9]
  Plant response rating, Wheat: 20
[2]; [10]
  Plant response rating, Wheat: 20
[2]; [11]
  Plant response rating, Wheat: 35
[2]; [12]
  Plant response rating, Wheat: 45
[2]; [13]
  Plant response rating, Wheat: 5
[2]; [14]
  Plant response rating, Wheat: 40
[2]; [15]
  Plant response rating, Wheat: 40
[2]; [16]
  Plant response rating, Wheat: 60
[3]; [9]
  Plant response rating, Galium: 90
[3]; [10]
  Plant response rating, Galium: 90
[3]; [11]
  Plant response rating, Galium: 90
[3]; [12]
  Plant response rating, Galium: 95
[3]; [13]
  Plant response rating, Galium: 85
[3]; [14]
  Plant response rating, Galium: 100
[3]; [15]
  Plant response rating, Galium: 100
[3]; [16]
  Plant response rating, Galium: 100
Corn (Zea mays); [9]
  Plant response rating, Corn: 15
Corn (Zea mays); [10]
  Plant response rating, Corn: 15
Corn (Zea mays); [11]
  Plant response rating, Corn: 30
Corn (Zea mays); [17]
  Plant response rating, Corn: 45
Corn (Zea mays); [13]
  Plant response rating, Corn: 5
Corn (Zea mays); [14]
  Plant response rating, Corn: 15
Corn (Zea mays); [15]
  Plant response rating, Corn: 25
Corn (Zea mays); [16]
  Plant response rating, Corn: 55
[4]; [9]
  Plant response rating, Lambsquarters: 80
[4]; [10]
  Plant response rating, Lambsquarters: 95
[4]; [11]
  Plant response rating, Lambsquarters: 95
[4]; [12]
  Plant response rating, Lambsquarters: 95
[4]; [13]
  Plant response rating, Lambsquarters: 98
[4]; [14]
  Plant response rating, Lambsquarters: 98
[4]; [15]
  Plant response rating, Lambsquarters: 98
[4]; [16]
  Plant response rating, Lambsquarters: 98
[5]; [9]
  Plant response rating, Morningglory: 50
[5]; [10]
  Plant response rating, Morningglory: 80
[5]; [11]
  Plant response rating, Morningglory: 90
[5]; [12]
  Plant response rating, Morningglory: 90
[5]; [13]
  Plant response rating, Morningglory: 45
[5]; [14]
  Plant response rating, Morningglory: 55
[5]; [15]
  Plant response rating, Morningglory: 55
[5]; [16]
  Plant response rating, Morningglory: 80
[6]; [9]
  Plant response rating, Velvetleaf: 60
[6]; [10]
  Plant response rating, Velvetleaf: 75
[6]; [11]
  Plant response rating, Velvetleaf: 80
[6]; [12]
  Plant response rating, Velvetleaf: 90
[6]; [13]
  Plant response rating, Velvetleaf: 80
[6]; [14]
  Plant response rating, Velvetleaf: 100
[6]; [15]
  Plant response rating, Velvetleaf: 100
[6]; [16]
  Plant response rating, Velvetleaf: 100
Barnyardgrass; [18]
  Plant response rating, Barnyardgrass: 40
Barnyardgrass; [19]
  Plant response rating, Barnyardgrass: 75
Barnyardgrass; 250 g ai/ha, scale 0 to 100
  Plant response rating, Barnyardgrass: 95
Waterhemp [7]
  Plant response rating, Waterhemp: 90
Oilseed Rape
  Plant response rating, Oilseed Rape: 100
Waterhemp [8]
  Plant response rating, Waterhemp: 80

## CCc1nn(-c2ccc(C(F)(F)F)cc2)nc1Oc1ccnc(C(F)(F)F)c1 [Compound 169]
Rice (Oryza sativa)
  Plant response rating, Rice (0 to 100 scale, 0 is no effect, 100 is complete control): 55
[1]
  Plant response rating, Sedge, Umbrella (0 to 100 scale, 0 is no effect, 100 is complete control): 85
[2]; [9]
  Plant response rating, Wheat: 10
[2]; [10]
  Plant response rating, Wheat: 10
[2]; [11]
  Plant response rating, Wheat: 30
[2]; [12]
  Plant response rating, Wheat: 30
[2]; [13]
  Plant response rating, Wheat: 5
[2]; [14]
  Plant response rating, Wheat: 15
[2]; [15]
  Plant response rating, Wheat: 20
[2]; [16]
  Plant response rating, Wheat: 50
[3]; [9]
  Plant response rating, Galium: 80
[3]; [10]
  Plant response rating, Galium: 90
[3]; [11]
  Plant response rating, Galium: 90
[3]; [12]
  Plant response rating, Galium: 95
[3]; [13]
  Plant response rating, Galium: 100
[3]; [14]
  Plant response rating, Galium: 100
[3]; [15]
  Plant response rating, Galium: 100
[3]; [16]
  Plant response rating, Galium: 100
Corn (Zea mays); [9]
  Plant response rating, Corn: 10
Corn (Zea mays); [10]
  Plant response rating, Corn: 15
Corn (Zea mays); [11]
  Plant response rating, Corn: 20
Corn (Zea mays); [17]
  Plant response rating, Corn: 30
Corn (Zea mays); [13]
  Plant response rating, Corn: 5
Corn (Zea mays); [14]
  Plant response rating, Corn: 5
Corn (Zea mays); [15]
  Plant response rating, Corn: 10
Corn (Zea mays); [16]
  Plant response rating, Corn: 20
[4]; [9]
  Plant response rating, Lambsquarters: 90
[4]; [10]
  Plant response rating, Lambsquarters: 90
[4]; [11]
  Plant response rating, Lambsquarters: 98
[4]; [12]
  Plant response rating, Lambsquarters: 98
[4]; [13]
  Plant response rating, Lambsquarters: 90
[4]; [14]
  Plant response rating, Lambsquarters: 90
[4]; [15]
  Plant response rating, Lambsquarters: 90
[4]; [16]
  Plant response rating, Lambsquarters: 90
[5]; [9]
  Plant response rating, Morningglory: 98
[5]; [11]
  Plant response rating, Morningglory: 100
[5]; [12]
  Plant response rating, Morningglory: 100
[5]; [13]
  Plant response rating, Morningglory: 25
[5]; [14]
  Plant response rating, Morningglory: 55
[5]; [15]
  Plant response rating, Morningglory: 80
[5]; [16]
  Plant response rating, Morningglory: 85
[6]; [9]
  Plant response rating, Velvetleaf: 50
[6]; [10]
  Plant response rating, Velvetleaf: 65
[6]; [11]
  Plant response rating, Velvetleaf: 75
[6]; [12]
  Plant response rating, Velvetleaf: 80
[6]; [13]
  Plant response rating, Velvetleaf: 50
[6]; [14]
  Plant response rating, Velvetleaf: 75
[6]; [15]
  Plant response rating, Velvetleaf: 75
[6]; [16]
  Plant response rating, Velvetleaf: 100
Barnyardgrass; [18]
  Plant response rating, Barnyardgrass: 15
Barnyardgrass; [19]
  Plant response rating, Barnyardgrass: 25
Barnyardgrass; 250 g ai/ha, scale 0 to 100
  Plant response rating, Barnyardgrass: 85
Waterhemp [7]
  Plant response rating, Waterhemp: 80
Oilseed Rape
  Plant response rating, Oilseed Rape: 98
Waterhemp [8]
  Plant response rating, Waterhemp: 75
